Consider one compound from paper PMC10817531, “Chlorinated Enyne Fatty Acid Amides from a Marine Cyanobacterium: Discovery of Taveuniamides L-M and Pharmacological Characterization of Taveuniamide F as a GPCR Antagonist with CNR1 Selectivity” (Marine Drugs, 2023).

One series has as its target BDKRB2 (Homo sapiens, UniProt P30411). The experiment in a line: PathHunter β-arrestin GpcrMAX assay. It is filed as cell-based. Summed up: (§1)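 Taveuniamide F was examined at 20 µM for receptor activation and for inhibition, with β-arrestin recruitment detected by PathHunter EFC.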
The next series deals with BRS3 (Homo sapiens, UniProt P32247). The experiment in a line: PathHunter β-arrestin GpcrMAX assay. It is filed as cell-based. In a few lines: as §1
For another series, the target named is AVPR1B (Homo sapiens, UniProt P47901). In words: PathHunter β-arrestin GpcrMAX assay. It is filed as cell-based. In a few lines:
as §1

Another series deals with T1, DRD1 (Homo sapiens, UniProt P21728).
T1 construct: purchased DiscoveRx (Eurofins) gpcrMAX PathHunter β-arrestin panel
In words: PathHunter β-arrestin GpcrMAX assay. It is filed as cell-based. Summed up:
as §1

The target in the next series is AGTR1 (Homo sapiens, UniProt P30556). The experiment in a line: PathHunter β-arrestin GpcrMAX assay. The series is classed as cell-based. Summed up: as §1
Another series deals with T2, EDG1 (Homo sapiens, UniProt P21453).
T2 construct: purchased DiscoveRx (Eurofins) gpcrMAX PathHunter β-arrestin panel
In words: PathHunter β-arrestin GpcrMAX assay. It is filed as cell-based. In a few lines: as §1

Another series deals with T3, TACR1 (Homo sapiens, UniProt P25103).
T3 construct: purchased DiscoveRx (Eurofins) gpcrMAX PathHunter β-arrestin panel
The experiment in a line: PathHunter β-arrestin GpcrMAX assay. The series is classed as cell-based. In a few lines:
as §1

The target of a further series is T4, NMU1R (Homo sapiens, UniProt Q9HB89).
T4 construct: purchased DiscoveRx (Eurofins) gpcrMAX PathHunter β-arrestin panel
In words: PathHunter β-arrestin GpcrMAX assay. It is filed as cell-based. In a few lines:
as §1

The target in a further series is T5, PROKR1 (Homo sapiens, UniProt Q8TCW9).
T5 construct: purchased DiscoveRx (Eurofins) gpcrMAX PathHunter β-arrestin panel
The experiment in a line: PathHunter β-arrestin GpcrMAX assay. It is filed as cell-based. Summed up:
as §1

Another series deals with T6, OPRD1 (Homo sapiens, UniProt P41143).
T6 construct: purchased DiscoveRx (Eurofins) gpcrMAX PathHunter β-arrestin panel
In words: PathHunter β-arrestin GpcrMAX assay. It is filed as cell-based. In a few lines:
as §1

A short description of another series: MTT cell viability assay. The conditions noted are these: human, HEK293 cells; 24 h exposure, majority of tested concentrations (below 100 μM). The series is classed as cell-based. On the procedure: (§2) HEK293 cells were purchased from ATCC (Manassas, VA, USA). They were cultured and maintained in Dulbecco’s modified Eagle medium (DMEM; Invitrogen, Waltham, MA, USA) supplemented with 10% fetal bovine serum (FBS; HyClone, Logan, UT, USA) and 1% antibiotic-antimycotic (Invitrogen) at 37 °C in a humidified atmosphere with 5% CO2. HEK293 cells were seeded in 96-well plates at densities of 15,000 cells per well in 100 μL, respectively. After 16 h of incubation, the cells were treated with 0.5 μL of various concentrations of compounds or a DMSO solvent control. Following 24 h of incubation, cells were treated with 3-(4,5-dimethylthiazol-2-yl)-2,5-diphenyltetrazolium bromide according to the manufacturer’s instructions (Promega, Madison, WI, USA). The experiments were performed as technical triplicates.

Another series concerns HEK293 cells. In words: MTT cell viability assay. It is filed as cell-based. As to conditions: 24 h exposure, 100 μM. On the procedure: as §2
(In general: Formazan colour is commonly taken as a measure of viable cells.)

Series [1] concerns the target T7, human recombinant cannabinoid CNR1 receptors (Homo sapiens, UniProt P21554).
T7 construct: host or cells: rat hematopoietic Chem-1 cells (membrane homogenate)
In words: Competitive radioligand binding assay ([3H]SR141716A). As to conditions: 2 nM [3H]SR141716A, 60 min, 37 °C, Chem-1 cell membranes. The procedure:
(a) Competitive radioligand binding assay of 4 to CNR1. Membrane homogenate of rat hematopoietic Chem-1 cells expressing human recombinant CNR1 receptors is incubated with 2 nM [3H]SR141716A for 60 min at 37 °C. […] (b) Effect of 4 in CNR1 cAMP functional assay in agonist and antagonist mode. Experiments were carried out as technical duplicates. Data are presented as mean ± SD (n = 2).
The assay was carried out by Eurofins Panlabs Discovery Services (New Taipei City, Taiwan). Human recombinant cannabinoid CNR1 receptors expressed in rat hematopoietic Chem-1 cells were used in modified HEPES buffer (50 mM HEPES, pH 7.4, 5 mM MgCl2, 1 mM CaCl2, 0.2% BSA). A 5 µg aliquot of membrane homogenate was incubated with 2 nM [^3H]SR141716A for 60 min at 37 °C. […] Membranes were filtered and washed four times and the filters were counted to determine [^3H]SR141716A as specifically bound. Compound 4 was screened at 8 concentrations, where the highest concentration was 50 µM. […] The experiments were carried out as technical duplicates.

T7 sequence (P21554 whole entry): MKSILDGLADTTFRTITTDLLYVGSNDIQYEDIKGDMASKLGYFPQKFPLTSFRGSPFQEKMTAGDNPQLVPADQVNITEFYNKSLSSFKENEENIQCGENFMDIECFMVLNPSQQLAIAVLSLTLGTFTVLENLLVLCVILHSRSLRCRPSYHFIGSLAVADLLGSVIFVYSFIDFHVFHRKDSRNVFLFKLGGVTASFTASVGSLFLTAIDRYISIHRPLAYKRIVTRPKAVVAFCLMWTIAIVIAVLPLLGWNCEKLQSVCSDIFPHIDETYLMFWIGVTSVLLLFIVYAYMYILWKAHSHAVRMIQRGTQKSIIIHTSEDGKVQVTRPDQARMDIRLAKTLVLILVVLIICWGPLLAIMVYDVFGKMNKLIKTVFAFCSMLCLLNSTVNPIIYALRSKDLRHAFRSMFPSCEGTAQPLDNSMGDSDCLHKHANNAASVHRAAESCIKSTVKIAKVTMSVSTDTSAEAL
Chain of BRS3 (P32247 whole entry): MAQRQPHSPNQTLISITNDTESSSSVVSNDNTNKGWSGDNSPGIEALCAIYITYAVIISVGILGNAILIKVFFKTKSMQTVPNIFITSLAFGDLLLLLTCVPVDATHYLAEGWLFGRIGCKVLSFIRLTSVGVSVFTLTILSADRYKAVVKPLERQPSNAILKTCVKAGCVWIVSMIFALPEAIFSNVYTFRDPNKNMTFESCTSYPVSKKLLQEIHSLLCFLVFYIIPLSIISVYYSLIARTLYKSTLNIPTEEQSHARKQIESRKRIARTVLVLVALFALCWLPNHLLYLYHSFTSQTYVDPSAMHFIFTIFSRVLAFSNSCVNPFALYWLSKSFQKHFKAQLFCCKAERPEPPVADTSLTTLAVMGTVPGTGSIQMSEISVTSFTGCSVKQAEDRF
Chain of AVPR1B (P47901 whole entry): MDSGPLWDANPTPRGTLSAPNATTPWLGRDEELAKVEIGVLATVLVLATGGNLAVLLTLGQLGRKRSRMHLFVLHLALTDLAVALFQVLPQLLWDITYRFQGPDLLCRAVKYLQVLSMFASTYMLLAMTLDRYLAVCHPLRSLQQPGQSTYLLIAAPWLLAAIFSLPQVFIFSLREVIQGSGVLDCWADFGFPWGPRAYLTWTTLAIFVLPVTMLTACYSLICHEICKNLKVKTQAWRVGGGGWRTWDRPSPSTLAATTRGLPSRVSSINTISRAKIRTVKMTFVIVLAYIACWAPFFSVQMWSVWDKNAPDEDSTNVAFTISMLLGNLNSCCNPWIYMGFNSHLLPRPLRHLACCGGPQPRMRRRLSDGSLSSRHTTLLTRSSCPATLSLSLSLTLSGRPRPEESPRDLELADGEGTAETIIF
T3 sequence (P25103 whole entry): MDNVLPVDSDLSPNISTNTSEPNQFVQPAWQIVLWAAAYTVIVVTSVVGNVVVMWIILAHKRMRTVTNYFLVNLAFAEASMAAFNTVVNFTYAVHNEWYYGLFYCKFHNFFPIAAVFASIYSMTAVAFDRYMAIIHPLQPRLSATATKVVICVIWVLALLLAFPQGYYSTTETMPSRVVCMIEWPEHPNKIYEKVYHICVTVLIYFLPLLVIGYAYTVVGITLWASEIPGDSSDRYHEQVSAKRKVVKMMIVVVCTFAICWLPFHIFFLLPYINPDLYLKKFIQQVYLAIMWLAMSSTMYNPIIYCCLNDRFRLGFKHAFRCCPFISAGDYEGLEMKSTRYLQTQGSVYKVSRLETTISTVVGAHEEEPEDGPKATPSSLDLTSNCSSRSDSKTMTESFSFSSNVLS
T1 sequence (P21728 whole entry): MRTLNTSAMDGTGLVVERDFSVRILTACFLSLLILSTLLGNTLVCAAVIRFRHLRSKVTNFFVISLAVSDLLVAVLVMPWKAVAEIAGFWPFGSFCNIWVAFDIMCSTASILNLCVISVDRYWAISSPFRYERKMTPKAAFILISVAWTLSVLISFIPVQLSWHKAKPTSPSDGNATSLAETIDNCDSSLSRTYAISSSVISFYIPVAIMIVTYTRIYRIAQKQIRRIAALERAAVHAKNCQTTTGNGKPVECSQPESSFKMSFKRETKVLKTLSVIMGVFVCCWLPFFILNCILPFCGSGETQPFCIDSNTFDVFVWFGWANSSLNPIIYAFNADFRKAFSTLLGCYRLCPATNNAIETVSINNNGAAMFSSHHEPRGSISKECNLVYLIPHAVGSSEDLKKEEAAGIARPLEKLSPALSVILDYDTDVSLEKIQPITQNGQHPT
T6 sequence (P41143 whole entry): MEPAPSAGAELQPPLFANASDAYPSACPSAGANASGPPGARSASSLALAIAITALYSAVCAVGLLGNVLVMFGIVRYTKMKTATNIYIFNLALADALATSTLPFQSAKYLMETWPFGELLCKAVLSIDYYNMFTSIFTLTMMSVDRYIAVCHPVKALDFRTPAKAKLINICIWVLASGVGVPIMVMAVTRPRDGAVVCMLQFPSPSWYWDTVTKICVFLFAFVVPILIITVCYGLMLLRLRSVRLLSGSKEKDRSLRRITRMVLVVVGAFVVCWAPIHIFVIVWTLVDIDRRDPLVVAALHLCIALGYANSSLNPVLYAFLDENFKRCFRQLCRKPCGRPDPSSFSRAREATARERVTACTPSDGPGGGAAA
T4 sequence (Q9HB89 whole entry): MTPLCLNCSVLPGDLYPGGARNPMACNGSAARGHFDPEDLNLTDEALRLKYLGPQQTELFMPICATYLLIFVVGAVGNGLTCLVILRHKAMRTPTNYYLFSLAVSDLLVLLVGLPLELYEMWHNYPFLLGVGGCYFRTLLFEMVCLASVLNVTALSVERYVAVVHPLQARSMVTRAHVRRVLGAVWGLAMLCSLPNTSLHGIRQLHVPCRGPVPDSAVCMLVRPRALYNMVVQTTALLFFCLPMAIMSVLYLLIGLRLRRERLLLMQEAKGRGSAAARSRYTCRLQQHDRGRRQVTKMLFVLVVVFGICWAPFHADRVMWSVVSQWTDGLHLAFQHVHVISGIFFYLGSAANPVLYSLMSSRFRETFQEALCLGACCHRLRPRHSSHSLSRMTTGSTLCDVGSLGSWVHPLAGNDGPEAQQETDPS
Chain of BDKRB2 (P30411 whole entry): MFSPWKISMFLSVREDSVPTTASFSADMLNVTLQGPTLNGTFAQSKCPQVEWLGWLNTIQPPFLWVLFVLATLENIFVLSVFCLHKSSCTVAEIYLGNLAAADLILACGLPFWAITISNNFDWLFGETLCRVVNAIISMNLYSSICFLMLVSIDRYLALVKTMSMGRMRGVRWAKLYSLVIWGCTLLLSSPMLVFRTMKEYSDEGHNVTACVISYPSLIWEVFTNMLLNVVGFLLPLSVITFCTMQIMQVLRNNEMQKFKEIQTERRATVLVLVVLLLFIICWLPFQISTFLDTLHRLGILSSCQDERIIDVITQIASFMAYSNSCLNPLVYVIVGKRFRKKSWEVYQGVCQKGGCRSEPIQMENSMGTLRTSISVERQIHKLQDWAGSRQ
Chain of AGTR1 (P30556 whole entry): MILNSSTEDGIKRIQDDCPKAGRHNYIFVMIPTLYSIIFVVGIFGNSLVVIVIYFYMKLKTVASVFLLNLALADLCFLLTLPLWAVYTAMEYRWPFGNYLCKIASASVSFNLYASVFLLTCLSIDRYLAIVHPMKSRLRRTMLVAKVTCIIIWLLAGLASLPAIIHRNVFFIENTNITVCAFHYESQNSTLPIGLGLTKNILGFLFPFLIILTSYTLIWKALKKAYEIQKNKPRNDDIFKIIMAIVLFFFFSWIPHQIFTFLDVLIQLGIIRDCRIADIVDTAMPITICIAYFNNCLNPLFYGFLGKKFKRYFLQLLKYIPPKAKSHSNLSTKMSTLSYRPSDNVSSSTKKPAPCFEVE
T2 sequence (P21453 whole entry): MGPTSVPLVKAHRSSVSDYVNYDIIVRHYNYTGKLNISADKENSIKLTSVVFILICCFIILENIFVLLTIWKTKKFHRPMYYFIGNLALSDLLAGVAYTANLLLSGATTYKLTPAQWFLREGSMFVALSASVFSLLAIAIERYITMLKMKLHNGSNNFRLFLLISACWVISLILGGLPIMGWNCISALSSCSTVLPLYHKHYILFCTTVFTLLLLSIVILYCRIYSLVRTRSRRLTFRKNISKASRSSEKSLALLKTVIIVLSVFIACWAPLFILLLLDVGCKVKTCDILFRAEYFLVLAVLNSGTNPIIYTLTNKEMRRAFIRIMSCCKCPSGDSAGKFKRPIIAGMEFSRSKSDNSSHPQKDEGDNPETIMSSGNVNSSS
T5 sequence (Q8TCW9 whole entry): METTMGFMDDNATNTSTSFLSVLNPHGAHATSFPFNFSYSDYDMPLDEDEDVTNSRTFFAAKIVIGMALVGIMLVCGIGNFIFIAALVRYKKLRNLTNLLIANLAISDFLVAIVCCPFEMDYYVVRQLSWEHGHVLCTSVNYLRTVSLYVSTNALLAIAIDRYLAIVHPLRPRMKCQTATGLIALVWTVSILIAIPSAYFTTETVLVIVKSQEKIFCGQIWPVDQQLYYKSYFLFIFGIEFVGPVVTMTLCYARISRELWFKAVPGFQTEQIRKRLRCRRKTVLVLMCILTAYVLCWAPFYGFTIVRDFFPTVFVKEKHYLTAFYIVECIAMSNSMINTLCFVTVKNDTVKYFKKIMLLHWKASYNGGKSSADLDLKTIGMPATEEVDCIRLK

What is called inhibition is how much of the control response was suppressed. Low values mean a weak effect, high ones a strong effect. What is called viability is a read-out of living cells in per cent, often relative to untreated cells. High values mean better survival, low ones a greater loss of cells. Usually IC50 stands for the concentration that inhibits the measured activity by half. In general, Ki refers to a measure of affinity in units of concentration, obtained from inhibition or displacement. `CC(=O)N[C@@H](CCCC#C/C=C/Cl)CCCCCCC(Cl)Cl` [Compound 4, taveuniamide F]: the inhibition at 20 µM against BDKRB2 is 8.4%; against BRS3, 15.9%; on AVPR1B, 57.5%; at DRD1, 18.6%; against AGTR1 it was 23.3%; against EDG1, 33.1%. Further, the inhibition at 20 µM was found to be 0.5% against TACR1, 30.1% at NMU1R, 37.6% against PROKR1 and 7.2% against OPRD1. Moreover, the viability at 24 h in “MTT cell viability assay” came out at 100%. For the same compound, in the series on HEK293 cells, the “reduction in cell viability” value worked out at 56%. Further, the IC50 in series [1] was determined as 37.7 µM. The Ki in series [1] was 34 µM.
